The source of these data is patent publication US9580449B2, “Compositions and methods for the production of pyrimidine and pyridine compounds with BTK inhibitory activity” (Merck Patent GmbH, priority 2011, dated 2017).

SMILES strings stand for the structures.

Chain of full-length human BTK (Q06187 whole entry): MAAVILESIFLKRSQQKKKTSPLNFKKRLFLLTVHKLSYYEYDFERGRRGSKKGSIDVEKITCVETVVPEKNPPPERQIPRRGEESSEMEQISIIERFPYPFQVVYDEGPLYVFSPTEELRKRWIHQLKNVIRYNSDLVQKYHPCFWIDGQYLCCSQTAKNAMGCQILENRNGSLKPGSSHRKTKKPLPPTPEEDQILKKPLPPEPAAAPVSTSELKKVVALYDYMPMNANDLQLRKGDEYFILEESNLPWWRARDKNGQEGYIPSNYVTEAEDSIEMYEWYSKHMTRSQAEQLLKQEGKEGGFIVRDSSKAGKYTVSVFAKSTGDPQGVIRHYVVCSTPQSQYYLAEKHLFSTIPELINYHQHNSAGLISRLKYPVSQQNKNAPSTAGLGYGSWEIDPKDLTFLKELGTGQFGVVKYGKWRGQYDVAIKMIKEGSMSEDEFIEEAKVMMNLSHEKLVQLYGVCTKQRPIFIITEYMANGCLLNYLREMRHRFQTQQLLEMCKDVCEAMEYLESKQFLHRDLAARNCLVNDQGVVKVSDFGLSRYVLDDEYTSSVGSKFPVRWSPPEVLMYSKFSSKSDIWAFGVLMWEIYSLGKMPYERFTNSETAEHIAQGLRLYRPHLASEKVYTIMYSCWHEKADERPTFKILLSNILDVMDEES

The experiment concerns the target full-length human BTK (Homo sapiens (Human), UniProt Q06187). In words: BTK IC50 enzyme assay (microfluidic off-chip mobility shift kinase assay). Format: biochemical. Particulars: incubated for 90 min. at 27 C; read-out: Time Dependent BTK Enzyme Assay IC50. In outline: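 Off-chip microfluidic mobility shift assay on full-length human BTK; substrate-to-product conversion measured by charge/mass separation of phosphorylated peptide after reaction stop.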
What is called IC50 is the point on the concentration scale where inhibition reaches its midpoint. Regarding `C=CC(=O)N1CCC(F)(CNc2ncnc(N)c2-c2ccc(Oc3ccccc3)cc2)CC1` [A225, 1-(4-(((6-amino-5-(4-phenoxyphenyl)pyrimidin-4-yl)amino)methyl)-4-fluoropiperidin-1-yl)prop-2-en-1-one], the IC50 is less than 100 nM.

As to `C=CC(=O)Nc1cccc(Oc2ncnc(N)c2-c2cc(F)c(OCc3ccccc3)cc2F)c1` [A339, N-(3-((6-amino-5-(4-(benzyloxy)-2,5-difluorophenyl)pyrimidin-4-yl)oxy)phenyl)acrylamide], the IC50 is less than 100 nM.

For `C#CC(=O)N1CC[C@@H](CNc2ncnc(N)c2-c2cnn(Cc3ccccc3)c2)[C@H](O)C1` [A110, 1-((3S,4S)-4-(((6-amino-5-(1-benzyl-1H-pyrazol-4-yl)pyrimidin-4-yl)amino)methyl)-3-hydroxypiperidin-1-yl)prop-2-yn-1-one], the IC50 was less than 100 nM.

On to `CCC(=O)Nc1cccc(Oc2ncnc(N)c2-c2ccc(OCc3ccccc3)cc2)c1` [A346, N-{3-[6-Amino-5-(4-benzyloxy-phenyl)-pyrimidin-4-yloxy]-phenyl}-propionamide], for which the IC50 was less than 100 nM.

On to `Nc1ncnc(Oc2cccc(NC(=O)CCl)c2)c1-c1ccc(Oc2ccccc2)cc1` [A342, N-{3-[6-Amino-5-(4-phenoxy-phenyl)-pyrimidin-4-yloxy]-phenyl}-2-chloroacetamide], for which the IC50 was less than 100 nM.

Take `C=CC(=O)N1CCC(CNc2ccnc(N)c2-c2ccc(Oc3ccccc3)cc2)CC1` [A76, 1-(4-(((2-amino-3-(4-phenoxyphenyl)pyridin-4-yl)amino)methyl)piperidin-1-yl)prop-2-en-1-one]: the IC50 was less than 1000 nM.

In the case of `C=CC(=O)Nc1ccc(-c2cnccc2Oc2ccc(Oc3ccccc3)cc2)cc1` [A281, N-(4-(4-(4-phenoxyphenoxy)pyridin-3-yl)phenyl)acrylamide], the IC50 is less than 1000 nM.

As to `C=CC(=O)NC1CCCN(c2ncnc(N)c2-c2ccc(Oc3ccccc3)cc2)C1` (stereo not shown) [A298, N-(1-(6-amino-5-(4-phenoxyphenyl)pyrimidin-4-yl)piperidin-3-yl)acrylamide], the IC50 was greater than 1000 nM.

In the case of `C=CC(=O)Nc1cccc(Oc2ncnc(N)c2-c2ccc(OCc3ccccc3)nc2)c1` [A259, N-(3-((6-amino-5-(6-(benzyloxy)pyridin-3-yl)pyrimidin-4-yl)oxy)phenyl)acrylamide], the IC50 is less than 100 nM.

For the molecule `C=CC(=O)N1CCC(CNc2ncnc(N)c2-c2ccc(OCc3ccccc3)cc2)C1` (stereo not shown) [A156, 1-(3-(((6-amino-5-(4-(benzyloxy)phenyl)pyrimidin-4-yl)amino)methyl)pyrrolidin-1-yl)prop-2-en-1-one], the IC50 is less than 1000 nM.

Take `C=CC(=O)N1CC[C@@H](COc2ncnc(N)c2-c2ccc(Oc3ccc(C#N)cc3)cc2)C1` [A201, (R)-4-(4-(4-((1-acryloylpyrrolidin-3-yl)methoxy)-6-aminopyrimidin-5-yl)phenoxy)benzonitrile]: the concentration for half-maximal inhibition (IC50) is less than 1000 nM.

Consider `C=CC(=O)Nc1cccc(Oc2ncnc(N)c2-c2cnn(Cc3cccc(C)c3)c2)c1` [A190, N-(3-((6-amino-5-(1-(3-methylbenzyl)-1H-pyrazol-4-yl)pyrimidin-4-yl)oxy)phenyl)acrylamide], for which the IC50 was less than 100 nM.

Regarding `C=CC(=O)N1CCC=C(c2cnccc2Oc2ccc(Oc3ccccc3)cc2)C1` [A288, 1-(4′-(4-phenoxyphenoxy)-5,6-dihydro-[3,3′-bipyridin]-1(2H)-yl)prop-2-en-1-one], the IC50 is less than 1000 nM.

In the case of `C=CC(=O)N1CCC(CNc2ncnc(N)c2-c2ccc(Oc3ccc(C(F)(F)F)cc3)cc2)CC1` [A79, 1-(4-(((6-amino-5-(4-(4-(trifluoromethyl)phenoxy)phenyl)pyrimidin-4-yl)amino)methyl)piperidin-1-yl)prop-2-en-1-one], the IC50 is less than 1000 nM.

Take `C=CC(=O)N1CCC(CNc2ncnc(N)c2-c2ccc(Oc3ccc(C#N)cc3)cc2)CC1` [A86, 4-(4-(4-(((1-acryloylpiperidin-4-yl)methyl)amino)-6-aminopyrimidin-5-yl)phenoxy)benzonitrile]: the IC50 is less than 1000 nM.

`C=CC(=O)Nc1cccc(-c2c(N)ncnc2N[C@H](C)c2ccccc2)c1` [A311, (R)-N-(3-(4-amino-6-((1-phenylethyl)amino)pyrimidin-5-yl)phenyl)acrylamide]: the IC50 was greater than 1000 nM.

Regarding `C=CC(=O)N1CCC(CNc2ncnc(N)c2-c2ccc(C(=O)Nc3ccccc3)cc2)CC1` [A157, 4-(4-(((1-acryloylpiperidin-4-yl)methyl)amino)-6-aminopyrimidin-5-yl)-N-phenylbenzamide], the IC50 was greater than 1000 nM.

Turning to `C=CC(=O)N1CCC(CN(C)c2ncnc(N)c2-c2ccc(Oc3ccccc3)cc2)CC1` [A47, 1-(4-(((6-amino-5-(4-phenoxyphenyl)pyrimidin-4-yl)(methyl)amino)methyl)piperidin-1-yl)prop-2-en-1-one], the IC50 is less than 1000 nM.

`CN(C)C/C=C/C(=O)N[C@H]1C[C@@H](Nc2ncnc(N)c2-c2ccc(Oc3ccccc3)cc2)C1` [A224, (E)-N-(1,3-cis-3-((6-amino-5-(4-phenoxyphenyl)pyrimidin-4-yl)amino)cyclobutyl)-4-(dimethylamino)but-2-enamide]: the IC50 is less than 100 nM.

Consider `C=CC(=O)N1CCC(CNc2ncnc(N)c2-c2ccc(Oc3ccc(F)cc3)cc2)CC1` [A80], for which the IC50 is less than 1000 nM.

`C=CC(=O)Nc1cccc(Oc2ncnc(N)c2-c2cnn(Cc3cccc(OC)c3)c2)c1` [A198, N-(3-((6-amino-5-(1-(3-methoxybenzyl)-1H-pyrazol-4-yl)pyrimidin-4-yl)oxy)phenyl)acrylamide]: the IC50 is less than 100 nM.

Consider `C=CC(=O)Nc1cccc(Oc2ncnc(N)c2-c2ccc(OCc3ccccc3)c(F)c2F)c1` [A257, N-(3-((6-amino-5-(4-(benzyloxy)-2,3-difluorophenyl)pyrimidin-4-yl)oxy)phenyl)acrylamide], for which the IC50 was less than 100 nM.

As to `CN(C)C/C=C/C(=O)N1CCC(CNc2ncnc(N)c2-c2ccc(Oc3ccccc3)cc2)(C(=O)O)CC1` [A217, (E)-4-(((6-amino-5-(4-phenoxyphenyl)pyrimidin-4-yl)amino)methyl)-1-(4-(dimethylamino)but-2-enoyl)piperidine-4-carboxylic acid], the IC50 is less than 1000 nM.

Turning to `C=CC(=O)N1CCC(CNc2ncnc(N)c2-c2ccc(Oc3ccccc3)c(F)c2F)CC1` [A88, 1-(4-(((6-amino-5-(2,3-difluoro-4-phenoxyphenyl)pyrimidin-4-yl)amino)methyl)piperidin-1-yl)prop-2-en-1-one], the IC50 was less than 100 nM.

As to `C=CC(=O)Nc1ccc(Oc2ncnc(N)c2-c2ccc(Oc3ccccc3)cc2)cc1` [A280, N-(4-((6-amino-5-(4-phenoxyphenyl)pyrimidin-4-yl)oxy)phenyl)acrylamide], the IC50 is less than 100 nM.

Consider `Nc1ccc(Oc2ncnc(N)c2-c2ccc(Oc3ccccc3)cc2)cc1` [A303, 6-(4-aminophenoxy)-5-(4-phenoxyphenyl)pyrimidin-4-amine], for which the IC50 was greater than 1000 nM.

Turning to `C=CC(=O)N1CC[C@@H](O)[C@H](Nc2ncnc(N)c2-c2ccc(Oc3ccccc3)cc2)C1` (racemic) [A210, 1-((3R,4R)-3-((6-amino-5-(4-phenoxyphenyl)pyrimidin-4-yl)amino)-4-hydroxypiperidin-1-yl)prop-2-en-1-one], the IC50 is less than 1000 nM.

In the case of `Nc1ncnc(Oc2ccc(Oc3ccccc3)cc2)c1-c1cccc(NC(=O)/C=C/CN2CCOCC2)c1` [A274, (E)-N-(3-(4-amino-6-(4-phenoxyphenoxy)pyrimidin-5-yl)phenyl)-4-morpholinobut-2-enamide], the IC50 is less than 100 nM.
